Results as given in the supplement of paper PMC10307832.

Experiments:
Assay in all cases: relative viability (nuclei count vs DMSO), 5 days (fraction); higher = more cells survive
NCI-H522 = tested on: NCI-H522
Summary of the method: (§1)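 Five library-drug doses in √10 steps were combined with a fixed anchor-drug dose, or a single drug was given alone, by pin tool to lung cancer cell lines in 1536-well plates the day after seeding. Nuclei were stained and counted after 5 days. Relative viability is the nuclei count in treated wells over that in vehicle wells, taken as the median of duplicate plates.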

NCI-H1651 = tested on: NCI-H1651
Summary of the method: as §1

NCI-H838 = tested on: NCI-H838
Summary of the method: as §1

LCLC-97TM1 = tested on: LCLC-97TM1
Summary of the method: as §1

NCI-H1793 = tested on: NCI-H1793
Summary of the method: as §1

HARA = tested on: HARA
Summary of the method: as §1

201T = tested on: 201T
Summary of the method: as §1

NCI-H2405 = tested on: NCI-H2405
Summary of the method: as §1

A-427 = tested on: A-427
Summary of the method: as §1

NCI-H2347 = tested on: NCI-H2347
Summary of the method: as §1

RERF-LC-KJ = tested on: RERF-LC-KJ
Summary of the method: as §1

NCI-H1650 = tested on: NCI-H1650
Summary of the method: as §1

LOU-NH91 = tested on: LOU-NH91
Summary of the method: as §1

PC-3 [JPC-3] = tested on: PC-3 [JPC-3]
Summary of the method: as §1

HCC-78 = tested on: HCC-78
Summary of the method: as §1

LK-2 = tested on: LK-2
Summary of the method: as §1

NCI-H23 = tested on: NCI-H23
Summary of the method: as §1

UMC-11 = tested on: UMC-11
Summary of the method: as §1

COR-L23 = tested on: COR-L23
Summary of the method: as §1

NCI-H520 = tested on: NCI-H520
Summary of the method: as §1

LCLC-103H = tested on: LCLC-103H
Summary of the method: as §1

LXF-289 = tested on: LXF-289
Summary of the method: as §1

NCI-H647 = tested on: NCI-H647
Summary of the method: as §1

`CCNC(=O)c1noc(-c2cc(C(C)C)c(O)cc2O)c1-c1ccc(CN2CCOCC2)cc1` [Luminespib] + Cc1cc(Nc2cc(N3CCN(C)CC3)nc(Sc3ccc(NC(=O)C4CC4)cc3)n2)n[nH]1 [Tozasertib] (partner 0.1 µM) showed a relative viability (NCI-H522; first compound 0.002 µM) of 0.621, a relative viability (NCI-H522; first compound 0.006325 µM) of 0.545 and a relative viability (NCI-H522; first compound 0.02 µM) of 0.512. For the same compound, the relative viability (NCI-H522; first compound 0.06325 µM) was 0.584, the relative viability (NCI-H522; first compound 0.2 µM) was 0.512 and the relative viability (NCI-H1651; first compound 0.002 µM) was 0.812. For the same compound, the relative viability (NCI-H1651; first compound 0.006325 µM) was 0.577, the relative viability (NCI-H1651; first compound 0.02 µM) was 0.611 and the relative viability (NCI-H1651; first compound 0.06325 µM) was 0.313. It also gave a relative viability (NCI-H1651; first compound 0.2 µM) of 0.154, a relative viability (NCI-H838; first compound 0.002 µM) of 0.272 and a relative viability (NCI-H838; first compound 0.006325 µM) of 0.215. It also gave a relative viability (NCI-H838; first compound 0.02 µM) of 0.308, a relative viability (NCI-H838; first compound 0.06325 µM) of 0.164 and a relative viability (NCI-H838; first compound 0.2 µM) of 0.123. For the same compound, the relative viability (LCLC-97TM1; first compound 0.002 µM) was 0.198, the relative viability (LCLC-97TM1; first compound 0.006325 µM) was 0.268 and the relative viability (LCLC-97TM1; first compound 0.02 µM) was 0.117. For the same compound, the relative viability (LCLC-97TM1; first compound 0.06325 µM) was 0.241, the relative viability (LCLC-97TM1; first compound 0.2 µM) was 0.214 and the relative viability (NCI-H1793; first compound 0.002 µM) was 0.345. The relative viability (NCI-H1793; first compound 0.006325 µM) was 0.346, the relative viability (NCI-H1793; first compound 0.02 µM) was 0.296 and the relative viability (NCI-H1793; first compound 0.06325 µM) was 0.307. For the same compound, the relative viability (NCI-H1793; first compound 0.2 µM) was 0.13, the relative viability (HARA; first compound 0.002 µM) was 0.158 and the relative viability (HARA; first compound 0.006325 µM) was 0.103. The relative viability (HARA; first compound 0.02 µM) was 0.106, the relative viability (HARA; first compound 0.06325 µM) was 0.172 and the relative viability (HARA; first compound 0.2 µM) was 0.339. For the same compound, the relative viability (201T; first compound 0.002 µM) was 0.988, the relative viability (201T; first compound 0.006325 µM) was 0.907 and the relative viability (201T; first compound 0.02 µM) was 0.665. It also gave a relative viability (201T; first compound 0.06325 µM) of 0.89, a relative viability (201T; first compound 0.2 µM) of 0.849 and a relative viability (NCI-H2405; first compound 0.002 µM) of 0.812. It also gave a relative viability (NCI-H2405; first compound 0.006325 µM) of 0.575, a relative viability (NCI-H2405; first compound 0.02 µM) of 0.808 and a relative viability (NCI-H2405; first compound 0.06325 µM) of 0.34. The relative viability (NCI-H2405; first compound 0.2 µM) was 0.152, the relative viability (A-427; first compound 0.002 µM) was 0.218 and the relative viability (A-427; first compound 0.006325 µM) was 0.204. The relative viability (A-427; first compound 0.02 µM) was 0.151, the relative viability (A-427; first compound 0.06325 µM) was 0.226 and the relative viability (A-427; first compound 0.2 µM) was 0.134. The relative viability (NCI-H2347; first compound 0.002 µM) was 0.592, the relative viability (NCI-H2347; first compound 0.006325 µM) was 0.407 and the relative viability (NCI-H2347; first compound 0.02 µM) was 0.471. The relative viability (NCI-H2347; first compound 0.06325 µM) was 0.269, the relative viability (NCI-H2347; first compound 0.2 µM) was 0.198 and the relative viability (RERF-LC-KJ; first compound 0.002 µM) was 0.558. The relative viability (RERF-LC-KJ; first compound 0.006325 µM) was 0.501, the relative viability (RERF-LC-KJ; first compound 0.02 µM) was 0.518 and the relative viability (RERF-LC-KJ; first compound 0.06325 µM) was 0.211. It also gave a relative viability (RERF-LC-KJ; first compound 0.2 µM) of 0.208, a relative viability (NCI-H1650; first compound 0.002 µM) of 0.412 and a relative viability (NCI-H1650; first compound 0.006325 µM) of 0.455. It also gave a relative viability (NCI-H1650; first compound 0.02 µM) of 0.168, a relative viability (NCI-H1650; first compound 0.06325 µM) of 0.153 and a relative viability (NCI-H1650; first compound 0.2 µM) of 0.145. For the same compound, the relative viability (LOU-NH91; first compound 0.002 µM) was 0.685, the relative viability (LOU-NH91; first compound 0.006325 µM) was 0.664 and the relative viability (LOU-NH91; first compound 0.02 µM) was 0.428. For the same compound, the relative viability (LOU-NH91; first compound 0.06325 µM) was 0.265, the relative viability (LOU-NH91; first compound 0.2 µM) was 0.282 and the relative viability (PC-3 [JPC-3]; first compound 0.002 µM) was 0.892. For the same compound, the relative viability (PC-3 [JPC-3]; first compound 0.006325 µM) was 0.845, the relative viability (PC-3 [JPC-3]; first compound 0.02 µM) was 0.801 and the relative viability (PC-3 [JPC-3]; first compound 0.06325 µM) was 0.656. The relative viability (PC-3 [JPC-3]; first compound 0.2 µM) was 0.375, the relative viability (HCC-78; first compound 0.002 µM) was 0.399 and the relative viability (HCC-78; first compound 0.006325 µM) was 0.273. It also gave a relative viability (HCC-78; first compound 0.06325 µM) of 0.467, a relative viability (HCC-78; first compound 0.2 µM) of 0.303 and a relative viability (LK-2; first compound 0.002 µM) of 0.184. For the same compound, the relative viability (LK-2; first compound 0.006325 µM) was 0.194, the relative viability (LK-2; first compound 0.02 µM) was 0.154 and the relative viability (LK-2; first compound 0.06325 µM) was 0.208. For the same compound, the relative viability (LK-2; first compound 0.2 µM) was 0.182, the relative viability (NCI-H23; first compound 0.002 µM) was 0.333 and the relative viability (NCI-H23; first compound 0.006325 µM) was 0.351. The relative viability (NCI-H23; first compound 0.02 µM) was 0.345, the relative viability (NCI-H23; first compound 0.06325 µM) was 0.279 and the relative viability (NCI-H23; first compound 0.2 µM) was 0.229. The relative viability (UMC-11; first compound 0.002 µM) was 0.211, the relative viability (UMC-11; first compound 0.006325 µM) was 0.191 and the relative viability (UMC-11; first compound 0.02 µM) was 0.194. For the same compound, the relative viability (UMC-11; first compound 0.06325 µM) was 0.242, the relative viability (UMC-11; first compound 0.2 µM) was 0.196 and the relative viability (COR-L23; first compound 0.002 µM) was 0.237. The relative viability (COR-L23; first compound 0.006325 µM) was 0.192, the relative viability (COR-L23; first compound 0.02 µM) was 0.272 and the relative viability (COR-L23; first compound 0.06325 µM) was 0.0698. For the same compound, the relative viability (COR-L23; first compound 0.2 µM) was 0.0682, the relative viability (NCI-H520; first compound 0.002 µM) was 0.404 and the relative viability (NCI-H520; first compound 0.006325 µM) was 0.449. The relative viability (NCI-H520; first compound 0.02 µM) was 0.345, the relative viability (NCI-H520; first compound 0.06325 µM) was 0.195 and the relative viability (NCI-H520; first compound 0.2 µM) was 0.221. The relative viability (LCLC-103H; first compound 0.002 µM) was 0.47, the relative viability (LCLC-103H; first compound 0.006325 µM) was 0.455 and the relative viability (LCLC-103H; first compound 0.02 µM) was 0.44. For the same compound, the relative viability (LCLC-103H; first compound 0.06325 µM) was 0.497, the relative viability (LCLC-103H; first compound 0.2 µM) was 0.308 and the relative viability (LXF-289; first compound 0.002 µM) was 0.225. It also gave a relative viability (LXF-289; first compound 0.006325 µM) of 0.216, a relative viability (LXF-289; first compound 0.02 µM) of 0.222 and a relative viability (LXF-289; first compound 0.06325 µM) of 0.141. For the same compound, the relative viability (LXF-289; first compound 0.2 µM) was 0.0935, the relative viability (NCI-H647; first compound 0.002 µM) was 0.299 and the relative viability (NCI-H647; first compound 0.006325 µM) was 0.274. The relative viability (NCI-H647; first compound 0.02 µM) was 0.431, the relative viability (NCI-H647; first compound 0.06325 µM) was 0.0669 and the relative viability (NCI-H647; first compound 0.2 µM) was 0.0766.
